IC50 data for one compound are collected here from ChEMBL document CHEMBL3639308, “Substituted naphthyridines and their use as medicaments” (2015).

The assay has as its target Tyrosine-protein kinase SYK (Homo sapiens, UniProt P43405).

The structures appear in SMILES notation.

On to `COc1cc(-c2cc3ncccc3c(O[C@H](C)[C@H]3CNC(=O)C3)n2)ccc1OC(F)(F)F`, for which the IC50 – broadly, the concentration at which inhibition is half-maximal – was 1.9 nM.
